# Source: PubChem BioAssay (NCI)
#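 48-hour exposure; five concentrations; linearly interpolated endpoints. TGI is the concentration that stops growth completely.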
# Assays:
# Experiment in all cases: NCI tumour cell line growth inhibition, 48 h
# NCI-H226 lung = system: NCI-H226 lung
# SK-MEL-5 melanoma = system: SK-MEL-5 melanoma
# MDA-MB-435 = system: MDA-MB-435
# OVCAR-4 ovarian = system: OVCAR-4 ovarian
# HT29 colon = system: HT29 colon
# ACHN renal = system: ACHN renal
# OVCAR-8 ovarian = system: OVCAR-8 ovarian
# SNB-19 CNS = system: SNB-19 CNS
# EKVX NSCLC = system: EKVX NSCLC
# UACC-62 melanoma = system: UACC-62 melanoma
# DU-145 prostate = system: DU-145 prostate
# K-562 leukemia = system: K-562 leukemia
# UO-31 renal = system: UO-31 renal
# HL-60(TB) leukemia = system: HL-60(TB) leukemia
# MOLT-4 leukemia = system: MOLT-4 leukemia
# BT-549 breast = system: BT-549 breast
# TK-10 renal = system: TK-10 renal
# HS 578T breast = system: HS 578T breast
# IGROV1 ovarian = system: IGROV1 ovarian
# SW-620 colon = system: SW-620 colon
# 786-0 renal = system: 786-0 renal
# RPMI-8226 leukemia = system: RPMI-8226 leukemia
# COLO 205 colon = system: COLO 205 colon
# HCT-15 colon = system: HCT-15 colon
# SK-MEL-28 melanoma = system: SK-MEL-28 melanoma
# SN12C renal = system: SN12C renal
# KM12 colon = system: KM12 colon
# SF-295 CNS = system: SF-295 CNS
# MALME-3M melanoma = system: MALME-3M melanoma
# NCI/ADR-RES ovarian = system: NCI/ADR-RES ovarian
# MDA-N = system: MDA-N
# UACC-257 melanoma = system: UACC-257 melanoma
# U251 CNS = system: U251 CNS
# MCF7 breast = system: MCF7 breast
# RXF 393 renal = system: RXF 393 renal
# A498 renal = system: A498 renal
# OVCAR-5 ovarian = system: OVCAR-5 ovarian
# A549 NSCLC = system: A549 NSCLC
# PC-3 prostate = system: PC-3 prostate
# NCI-H23 lung = system: NCI-H23 lung
# SNB-75 CNS = system: SNB-75 CNS
# HCT-116 colon = system: HCT-116 colon
# NCI-H460 lung = system: NCI-H460 lung
# SK-MEL-2 melanoma = system: SK-MEL-2 melanoma
# NCI-H522 lung = system: NCI-H522 lung
# HOP-62 NSCLC = system: HOP-62 NSCLC
# SF-268 CNS = system: SF-268 CNS
# T-47D breast = system: T-47D breast
# CAKI-1 renal = system: CAKI-1 renal
# M14 melanoma = system: M14 melanoma
# HOP-92 NSCLC = system: HOP-92 NSCLC
# HCC-2998 colon = system: HCC-2998 colon
# SK-OV-3 ovarian = system: SK-OV-3 ovarian
# LOX IMVI melanoma = system: LOX IMVI melanoma
# OVCAR-3 ovarian = system: OVCAR-3 ovarian
# MDA-MB-231 breast = system: MDA-MB-231 breast
# SF-539 CNS = system: SF-539 CNS
# SR leukemia = system: SR leukemia
# CCRF-CEM leukemia = system: CCRF-CEM leukemia
structure (smiles),measurement,setting,value
O=P(O)(O)C(O)/C=C/c1ccccc1 (stereo not given),TGI,NCI-H226 lung,> 100 µM
same,TGI,SK-MEL-5 melanoma,> 100 µM
same,TGI,MDA-MB-435,> 100 µM
same,TGI,OVCAR-4 ovarian,> 100 µM
same,TGI,HT29 colon,> 100 µM
same,TGI,ACHN renal,> 100 µM
same,TGI,OVCAR-8 ovarian,> 100 µM
same,TGI,SNB-19 CNS,> 100 µM
same,TGI,EKVX NSCLC,> 100 µM
same,TGI,UACC-62 melanoma,> 100 µM
same,TGI,DU-145 prostate,> 100 µM
same,TGI,K-562 leukemia,> 100 µM
same,TGI,UO-31 renal,> 100 µM
same,TGI,HL-60(TB) leukemia,> 100 µM
same,TGI,MOLT-4 leukemia,> 100 µM
same,TGI,BT-549 breast,> 100 µM
same,TGI,TK-10 renal,> 100 µM
same,TGI,HS 578T breast,> 100 µM
same,TGI,IGROV1 ovarian,> 100 µM
same,TGI,SW-620 colon,> 100 µM
same,TGI,786-0 renal,> 100 µM
same,TGI,RPMI-8226 leukemia,> 100 µM
same,TGI,COLO 205 colon,> 100 µM
same,TGI,HCT-15 colon,> 100 µM
same,TGI,SK-MEL-28 melanoma,> 100 µM
same,TGI,SN12C renal,> 100 µM
same,TGI,KM12 colon,> 100 µM
same,TGI,SF-295 CNS,> 100 µM
same,TGI,MALME-3M melanoma,> 100 µM
same,TGI,NCI/ADR-RES ovarian,> 100 µM
same,TGI,MDA-N,> 100 µM
same,TGI,UACC-257 melanoma,> 100 µM
same,TGI,U251 CNS,> 100 µM
same,TGI,MCF7 breast,> 100 µM
same,TGI,RXF 393 renal,> 100 µM
same,TGI,A498 renal,> 100 µM
same,TGI,OVCAR-5 ovarian,> 100 µM
same,TGI,A549 NSCLC,> 100 µM
same,TGI,PC-3 prostate,> 100 µM
same,TGI,NCI-H23 lung,> 100 µM
same,TGI,SNB-75 CNS,> 100 µM
same,TGI,HCT-116 colon,> 100 µM
same,TGI,NCI-H460 lung,> 100 µM
same,TGI,SK-MEL-2 melanoma,> 100 µM
same,TGI,NCI-H522 lung,> 100 µM
same,TGI,HOP-62 NSCLC,> 100 µM
same,TGI,SF-268 CNS,> 100 µM
same,TGI,T-47D breast,> 100 µM
same,TGI,CAKI-1 renal,> 100 µM
same,TGI,M14 melanoma,> 100 µM
same,TGI,HOP-92 NSCLC,> 100 µM
same,TGI,HCC-2998 colon,> 100 µM
same,TGI,SK-OV-3 ovarian,> 100 µM
same,TGI,LOX IMVI melanoma,> 100 µM
same,TGI,OVCAR-3 ovarian,> 100 µM
same,TGI,MDA-MB-231 breast,> 100 µM
CCCNC(=S)N/N=C/c1cccc(C)n1,TGI,NCI-H226 lung,72.2 µM
same,TGI,SK-MEL-5 melanoma,> 100 µM
same,TGI,MDA-MB-435,> 100 µM
same,TGI,OVCAR-4 ovarian,> 100 µM
same,TGI,HT29 colon,> 100 µM
same,TGI,ACHN renal,44.7 µM
same,TGI,OVCAR-8 ovarian,> 100 µM
same,TGI,EKVX NSCLC,> 100 µM
same,TGI,UACC-62 melanoma,57 µM
same,TGI,K-562 leukemia,77.5 µM
same,TGI,UO-31 renal,> 100 µM
same,TGI,HL-60(TB) leukemia,50.8 µM
same,TGI,MOLT-4 leukemia,72.3 µM
same,TGI,TK-10 renal,> 100 µM
same,TGI,HS 578T breast,> 100 µM
same,TGI,IGROV1 ovarian,> 100 µM
same,TGI,786-0 renal,> 100 µM
same,TGI,SF-539 CNS,62.9 µM
same,TGI,RPMI-8226 leukemia,> 100 µM
same,TGI,COLO 205 colon,> 100 µM
same,TGI,HCT-15 colon,> 100 µM
same,TGI,SN12C renal,> 100 µM
same,TGI,KM12 colon,> 100 µM
same,TGI,SF-295 CNS,> 100 µM
same,TGI,MALME-3M melanoma,> 100 µM
same,TGI,NCI/ADR-RES ovarian,> 100 µM
same,TGI,MDA-N,> 100 µM
same,TGI,UACC-257 melanoma,> 100 µM
same,TGI,U251 CNS,> 100 µM
same,TGI,SR leukemia,48.3 µM
same,TGI,MCF7 breast,> 100 µM
same,TGI,RXF 393 renal,> 100 µM
same,TGI,CCRF-CEM leukemia,7.05 µM
same,TGI,A498 renal,87.3 µM
same,TGI,OVCAR-5 ovarian,> 100 µM
same,TGI,A549 NSCLC,73.5 µM
same,TGI,PC-3 prostate,> 100 µM
same,TGI,NCI-H23 lung,> 100 µM
same,TGI,HCT-116 colon,29 µM
same,TGI,SK-MEL-2 melanoma,58.9 µM
same,TGI,NCI-H522 lung,37 µM
same,TGI,HOP-62 NSCLC,> 100 µM
same,TGI,T-47D breast,> 100 µM
same,TGI,M14 melanoma,27.2 µM
same,TGI,HOP-92 NSCLC,> 100 µM
same,TGI,HCC-2998 colon,> 100 µM
same,TGI,SK-OV-3 ovarian,> 100 µM
same,TGI,LOX IMVI melanoma,> 100 µM
same,TGI,MDA-MB-231 breast,> 100 µM
